Experiments:
Test in all cases: In vitro antibacterial evaluation: minimum inhibitory concentration (MIC), broth dilution method
Assay type in all cases: cell-based
Enterococcus sp. = settings: 18 hours at 35° C.
Method in brief: (§1)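 An MIC is reported for each organism as the least concentration giving inhibition, using broth dilution over 64-0.06 μg/mL with a 5×10^5 CFU/mL inoculum.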

Staphylococcus sp. = settings: 18 hours at 35° C.
Method in brief: as §1

Escherichia coli = Escherichia coli (GC 4560); 18 hours at 35° C.
Method in brief: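 Test strains, among them recent clinical isolates carrying methicillin, penicillin and/or vancomycin resistance, were inoculated at 5×10^5 CFU/mL. A broth dilution series spanning 64-0.06 μg/mL in Muller-Hinton II […] (NCCLS M7-A2) defined the MIC as the lowest growth-inhibiting concentration.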

Streptococcus sp. = settings: 18 hours at 35° C.
Method in brief: as §1

[1] = broth dilution, inoculum 5×10^5 CFU/mL

COc1ccc(COCC2OC(OC3C(CO)OC(Oc4ccc(CC5NC(=O)C(C(C)c6ccccc6)NC(=O)CNC(=O)C(CO)NC(=O)C(C(O)C6CNC(=N)N6C6OC(CO)C(O)C(O)C6O)NC(=O)C(C(O)C6CNC(=N)N6)NC5=O)cc4)C(O)C3O)C(O)C(O)C2O)c2ccccc12 (stereo not drawn) [Example 240, Cyclo[glycyl-β-methylphenylalanyl-O-[4-O-[6-O-[(4-methoxy-1-naphthyl)methyl]hexo-pyranosyl]hexopyranosyl]tyrosyl-3-(2-iminoimidazolidin-4-yl)seryl-3-(3-hexopyranosyl-2-iminoimidazolidin-4-yl)serylseryl]]
16 mg/L: MIC Enterococcus faecalis (ATCC 29212) (Enterococcus sp.; Enterococcus faecalis (ATCC 29212)) | MIC Enterococcus faecalis (GC 2242) (Enterococcus sp.; Enterococcus faecalis (GC 2242)) | MIC Enterococcus faecalis (GC 4552) (Enterococcus sp.; Enterococcus faecalis (GC 4552)) | MIC Enterococcus faecalis (GC 4553) (Enterococcus sp.; Enterococcus faecalis (GC 4553)) | MIC Enterococcus faecalis (GC 4554) (Enterococcus sp.; Enterococcus faecalis (GC 4554)) | MIC Enterococcus faecium (GC 2243) (Enterococcus sp.; Enterococcus faecium (GC 2243)) | MIC Enterococcus faecium (GC 4556) (Enterococcus sp.; Enterococcus faecium (GC 4556)) | MIC Enterococcus faecalis (GC 2242) (Enterococcus sp.; [1])
2 mg/L: MIC Enterococcus faecium (GC 4557) (Enterococcus sp.; Enterococcus faecium (GC 4557)) | MIC Coagulase Negative Staphylococcus (GC 4548) (Staphylococcus sp.; Coagulase Negative Staphylococcus (GC 4548)) | MIC Coagulase Negative Staphylococcus (GC 4549) (Staphylococcus sp.; Coagulase Negative Staphylococcus (GC 4549)) | MIC Coagulase Negative Staphylococcus (GC 4551) (Staphylococcus sp.; Coagulase Negative Staphylococcus (GC 4551)) | MIC Coagulase Negative Staphylococcus (GC 6257) (Staphylococcus sp.; Coagulase Negative Staphylococcus (GC 6257)) | MIC Staphylococcus aureus (GC 4542) (Staphylococcus sp.; Staphylococcus aureus (GC 4542)) | MIC Staphylococcus aureus-SMITH (GC 4543) (Staphylococcus sp.; Staphylococcus aureus-SMITH (GC 4543)) | MIC Staphylococcus haemolyticus (GC 4546) (Staphylococcus sp.; Staphylococcus haemolyticus (GC 4546)) | MIC Escherichia coli (GC 4560) (Escherichia coli)
8 mg/L: MIC Enterococcus faecalis (GC 2691) (Enterococcus sp.; Enterococcus faecalis (GC 2691)) | MIC Enterococcus faecalis (GC 3059) (Enterococcus sp.; Enterococcus faecalis (GC 3059)) | MIC Enterococcus faecalis (GC 6189) (Enterococcus sp.; Enterococcus faecalis (GC 6189)) | MIC Enterococcus faecalis (GC 2691) (Enterococcus sp.; [1]) | MIC Enterococcus faecalis (GC 3059) (Enterococcus sp.; [1])
4 mg/L: MIC Enterococcus avium (GC 4558) (Enterococcus sp.; Enterococcus avium (GC 4558)) | MIC Coagulase Negative Staphylococcus (GC 4547) (Staphylococcus sp.; Coagulase Negative Staphylococcus (GC 4547)) | MIC Staphylococcus aureus (ATCC 29213) (Staphylococcus sp.; Staphylococcus aureus (ATCC 29213)) | MIC Staphylococcus aureus (GC 1131) (Staphylococcus sp.; Staphylococcus aureus (GC 1131)) | MIC Staphylococcus aureus (GC 3053) (Staphylococcus sp.; Staphylococcus aureus (GC 3053)) | MIC Staphylococcus aureus (GC 4544) (Staphylococcus sp.; Staphylococcus aureus (GC 4544)) | MIC Staphylococcus aureus (GC 4545) (Staphylococcus sp.; Staphylococcus aureus (GC 4545))
0.5 mg/L: MIC Staphylococcus aureus (GC 3051) (Staphylococcus sp.; Staphylococcus aureus (GC 3051)) | MIC Streptococcus agalactiae (GC 4564) (Streptococcus sp.; Streptococcus agalactiae (GC 4564)) | MIC Streptococcus pyogenes (GC 4563) (Streptococcus sp.; Streptococcus pyogenes (GC 4563)) | MIC Streptococcus agalactiae (GC 4564) (Streptococcus sp.; [1]) | MIC Streptococcus pyogenes (GC 4563) (Streptococcus sp.; [1])
0.25 mg/L: MIC Streptococcus pneumoniae (GC 4565) (Streptococcus sp.; Streptococcus pneumoniae (GC 4565)) | MIC Streptococcus pneumoniae (GC 4565) (Streptococcus sp.; [1])
<0.12 mg/L: MIC Streptococcus pneumoniae (ATCC 6301) (Streptococcus sp.; Streptococcus pneumoniae (ATCC 6301)) | MIC Streptococcus pneumoniae (GC 1894) (Streptococcus sp.; Streptococcus pneumoniae (GC 1894)) | MIC Streptococcus pneumoniae (ATCC 6301) (Streptococcus sp.; [1]) | MIC Streptococcus pneumoniae (GC 1894) (Streptococcus sp.; [1])
1 mg/L: MIC Staphylococcus aureus (GC 4541) (Staphylococcus sp.; Staphylococcus aureus (GC 4541))

From US8247211B2, “Glycopeptide antibiotics” (American Cyanamid Company, priority 2001, dated 2012)
